Target: ATP-binding cassette sub-family C member 2 (Rattus norvegicus, UniProt Q63120)
Test: TP_TRANSPORTER: efflux in isolated rat hepatocytes (Wistar/TR-)
Assay type: functional, cell-based, Hepatocyte

Chain of ATP-binding cassette sub-family C member 2 (Q63120 whole entry): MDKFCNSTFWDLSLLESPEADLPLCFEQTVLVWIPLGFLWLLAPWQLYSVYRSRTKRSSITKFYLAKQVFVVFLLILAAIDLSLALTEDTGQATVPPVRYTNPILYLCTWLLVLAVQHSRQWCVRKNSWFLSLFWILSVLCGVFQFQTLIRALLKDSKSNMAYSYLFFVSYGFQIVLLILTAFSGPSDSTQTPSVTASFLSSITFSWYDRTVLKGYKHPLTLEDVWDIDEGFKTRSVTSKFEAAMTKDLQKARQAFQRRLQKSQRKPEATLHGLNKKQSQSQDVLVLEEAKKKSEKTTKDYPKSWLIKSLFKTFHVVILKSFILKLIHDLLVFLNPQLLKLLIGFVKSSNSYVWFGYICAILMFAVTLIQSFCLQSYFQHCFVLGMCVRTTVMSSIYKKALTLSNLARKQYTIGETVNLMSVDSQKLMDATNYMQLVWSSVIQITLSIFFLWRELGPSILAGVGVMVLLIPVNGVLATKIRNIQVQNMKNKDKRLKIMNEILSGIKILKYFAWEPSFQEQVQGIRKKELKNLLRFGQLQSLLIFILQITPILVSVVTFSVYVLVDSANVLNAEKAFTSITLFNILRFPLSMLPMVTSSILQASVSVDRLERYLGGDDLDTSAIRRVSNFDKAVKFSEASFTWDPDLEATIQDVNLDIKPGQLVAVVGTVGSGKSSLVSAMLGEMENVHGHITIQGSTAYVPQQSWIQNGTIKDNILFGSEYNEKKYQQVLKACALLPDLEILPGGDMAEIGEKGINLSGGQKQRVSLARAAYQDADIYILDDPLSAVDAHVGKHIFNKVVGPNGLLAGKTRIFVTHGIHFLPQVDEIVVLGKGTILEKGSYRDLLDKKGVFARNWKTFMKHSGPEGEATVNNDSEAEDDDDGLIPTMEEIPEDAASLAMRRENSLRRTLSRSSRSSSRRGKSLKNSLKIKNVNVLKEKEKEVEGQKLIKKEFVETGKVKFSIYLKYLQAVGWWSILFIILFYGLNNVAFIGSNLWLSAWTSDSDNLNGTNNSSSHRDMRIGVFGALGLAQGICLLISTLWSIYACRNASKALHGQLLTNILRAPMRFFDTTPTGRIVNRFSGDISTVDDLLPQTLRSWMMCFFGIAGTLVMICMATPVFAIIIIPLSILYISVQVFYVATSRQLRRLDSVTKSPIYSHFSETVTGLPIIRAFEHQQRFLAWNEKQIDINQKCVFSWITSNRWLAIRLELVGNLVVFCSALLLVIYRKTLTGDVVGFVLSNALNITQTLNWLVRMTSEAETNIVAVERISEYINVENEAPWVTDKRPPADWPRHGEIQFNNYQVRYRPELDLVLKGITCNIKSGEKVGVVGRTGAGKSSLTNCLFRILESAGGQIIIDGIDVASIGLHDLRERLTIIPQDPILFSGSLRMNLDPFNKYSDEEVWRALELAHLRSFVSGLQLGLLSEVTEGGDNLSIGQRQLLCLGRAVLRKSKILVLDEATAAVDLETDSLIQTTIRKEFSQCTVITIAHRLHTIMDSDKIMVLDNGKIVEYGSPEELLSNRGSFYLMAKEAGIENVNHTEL

Activity: substrate []
SMILES: CCCCCC1OC(O)CC1SC[C@H](NC(=O)CC[C@H](N)C(=O)O)C(=O)NCC(=O)O (stereo partly specified)

Reference: ChEMBL document CHEMBL2074224, “Characterization of multidrug resistance-associated protein 2 in the hepatocellular disposition of 4-hydroxynonenal” (Arch Biochem Biophys, 2003)
